Reference: patent US20250107533A1, “FUNGICIDAL COMPOSITIONS” (SYNGENTA CROP PROTECTION AG, priority 2021, published 2025)

System: Phakopsora pachyrhizi
Assay: Soybean leaf disk test against Asian soybean rust (Example 1)
Format: in vivo
Conditions: soybean leaf disks, assessed 12 days after inoculation; for inhibition at 0.74 ppm / inhibition at 2.22 ppm / inhibition at 0.25 ppm: Phakopsora pachyrhizi, foliar, 288 h, component (B) alone; for (A) inhibition: Aureobasidin A alone
Experimental: The compositions according to the invention are tested for their biological (fungicidal) activity using application rates wherein the component (A) is applied at a rate of from 25 g a.i./ha to 500 g a.i./ha in association with 10 g a.i./ha to 500 g a.i./ha of component (B).
The compositions according to the invention are tested for their biological (fungicidal) activity as dimethylsulfoxide (DMSO) solutions the protocols as set forth in the examples below. A standard description of the liquid culture tests is provided in Example 1.
Compounds to be tested were prepared as DMSO solutions (max. 10 mg/mL) which were diluted to the appropriate concentration with 0.025% TWEEN 20® surfactant just before spraying. Soybean leaf disks were placed on agar in multiwell plates (24-well format) and sprayed with test solutions. After 24 hours drying, the leaf disks were inoculated with a spore suspension of the fungus. The disease severity of a compound or mixture was assessed 12 days after inoculation and described as percent activity relative to the untreated check leaf disks.

Molecule | inhibition at 0.74 ppm | inhibition at 2.22 ppm | inhibition at 0.25 ppm | (A) inhibition (2.5 ppm) | (A) inhibition (7.4 ppm)
COC(C)C(=O)N(Cc1ccc(-c2noc(C(F)(F)F)n2)cc1)OC (stereo not shown) [B.03, N,2-dimethoxy-N-[[4-[5-(trifluoromethyl)-1,2,4-oxadiazol-3-yl]phenyl]methyl]propanamide] | 10% | 35% | – | – | –
CCN(Cc1ccc(-c2noc(C(F)(F)F)n2)cc1)C(=O)C(C)C [B.04, N-ethyl-2-methyl-N-[[4-[5-(trifluoromethyl)-1,2,4-oxadiazol-3-yl]phenyl]methyl]propanamide] | 0% | 35% | 0% | – | –
CCOC(=O)c1cnn(Cc2ccc(-c3noc(C(F)(F)F)n3)cc2)c1 [B.01, ethyl 1-[[4-[5-(trifluoromethyl)-1,2,4-oxadiazol-3-yl]phenyl]methyl]pyrazole-4-carboxylate] | 50% | – | – | – | –
CON(Cc1ccc(-c2noc(C(F)(F)F)n2)cc1)C(=O)C1CC1 [B.02, N-methoxy-N-[[4-[5-(trifluoromethyl)-1,2,4-oxadiazol-3-yl]phenyl]methyl]cyclopropanecarboxamide] | 10% | 35% | – | – | –
CCNC(=O)N(Cc1ccc(-c2noc(C(F)(F)F)n2)cc1)OC [B.07, 3-ethyl-1-methoxy-1-[[4-[5-(trifluoromethyl)-1,2,4-oxadiazol-3-yl]phenyl]methyl]urea] | 35% | – | 0% | – | –
CONC(=O)N(Cc1ccc(-c2noc(C(F)(F)F)n2)cc1)OC [B.06, 1,3-dimethoxy-1-[[4-[5-(trifluoromethyl)-1,2,4-oxadiazol-3-yl]phenyl]methyl]urea] | 0% | – | 0% | – | –
CNC(=O)N(Cc1ccc(-c2noc(C(F)(F)F)n2)cc1)OC [B.05, 1-methoxy-3-methyl-1-[[4-[5-(trifluoromethyl)-1,2,4-oxadiazol-3-yl]phenyl]methyl]urea] | 50% | – | 0% | – | –
Aureobasidin A | – | – | – | 62% | 88%
CCC(=O)NCc1ccc(-c2noc(C(F)(F)F)n2)cc1 [B.08, N-[[4-[5-(trifluoromethyl)-1,2,4-oxadiazol-3-yl]phenyl]methyl]propanamide] | 20% | 60% | 0% | – | –
